Experimental data reported in ChEMBL document CHEMBL5046257, “Synthesis and Evaluation of Bakuchiol Derivatives as Potent Anti-inflammatory Agents in Vitro and in Vivo” (J Nat Prod, 2022).
The source made the active and inactive calls. No cut-off for these calls is given here.

Experiments:
[1] = Cytotoxicity against mouse RAW 264.7 cells assessed as decreased cell viability measured after 24 hrs by MTT assay; type: toxicity, cell-based, RAW264.7
RAW264.7 [2] = experiment: Antiinflammatory activity in mouse RAW 264.7 cells assessed as inhibition of LPS-induced NO production at 20 uM for 1 hrs pretreatment followed by LPS stimulation for 23 hrs by Griess reagent assay; type: functional, cell-based; settings: time 24.0 hrs
RAW264.7 [3] = experiment: Antiinflammatory activity in mouse RAW 264.7 cells assessed as inhibition of LPS-induced IL-6 production at 5 to 10 uM for 1 hrs followed by LPS stimulation for 23 hrs by ELISA; type: functional, cell-based; settings: dose 5-10 µM, time 24.0 hrs
RAW264.7 [4] = experiment: Antiinflammatory activity in mouse RAW264.7 cells assessed as inhibition of LPS-induced ROS production at 5 to 10 uM for 1 hrs followed by LPS stimulation for 23 hrs by DCFH-DA staining based fluorescence assay; type: functional, cell-based; settings: dose 5-10 µM, time 24.0 hrs
RAW264.7 [5] = experiment: Antiinflammatory activity in mouse RAW264.7 cells assessed as upregulation of LPS-induced HO-1 expression at 5 to 10 uM for 1 hrs followed by LPS stimulation for 23 hrs by Western blot analysis; type: functional, cell-based; settings: dose 5-10 µM, time 24.0 hrs
RAW264.7 [6] = experiment: Antiinflammatory activity against mouse RAW264.7 cells assessed as inhibition of LPS-induced iNOS expression at 10 uM for 1 hrs followed by LPS stimulation for 23 hrs by western blot analysis; type: functional, cell-based; settings: time 24.0 hrs
Danio rerio [7] = species on record: Danio rerio; experiment: Antiinflammatory activity in zebrafish assessed as inhibition of LPS-induced ROS production at 2.5 to 5 uM for 24 hrs by laser confocal microscope; type: functional, organism-based; settings: dose 2.5-5 µM
RAW264.7 [8] = experiment: Antiinflammatory activity against mouse RAW264.7 cells assessed as inhibition of LPS-induced COX2 expression at 5 to 10 uM for 1 hrs followed by LPS stimulation for 23 hrs by western blot analysis; type: functional, cell-based; settings: dose 5-10 µM, time 24.0 hrs
RAW264.7 [9] = experiment: Antiinflammatory activity in mouse RAW264.7 cells assessed as downregulation of LPS-induced MAPK phosphorylation at 5 to 10 uM for 1 hrs followed by LPS stimulation for 23 hrs by Western blot analysis; type: functional, cell-based; settings: dose 5-10 µM, time 24.0 hrs
RAW264.7 [10] = experiment: Antiinflammatory activity in mouse RAW264.7 cells assessed as inhibition of LPS-induced IKKbeta phosphorylation at 5 to 10 uM for 1 hrs followed by LPS stimulation for 23 hrs by Western blot analysis; type: functional, cell-based; settings: dose 5-10 µM, time 24.0 hrs
RAW264.7 [11] = experiment: Antiinflammatory activity against mouse RAW264.7 cells assessed as inhibition of LPS-induced iNOS expression at 5 to 10 uM for 1 hrs followed by LPS stimulation for 23 hrs by western blot analysis; type: functional, cell-based; settings: dose 5-10 µM, time 24.0 hrs
RAW264.7 [12] = experiment: Antiinflammatory activity in mouse RAW264.7 cells assessed as upregulation of LPS-induced NRF2 expression at 5 to 10 uM for 1 hrs followed by LPS stimulation for 23 hrs by Western blot analysis; type: functional, cell-based; settings: dose 5-10 µM, time 24.0 hrs
Danio rerio [13] = species on record: Danio rerio; experiment: Antiinflammatory activity in zebrafish assessed as inhibition of LPS-induced NO production at 2.5 to 5 uM for 24 hrs by laser confocal microscope; type: functional, organism-based; settings: dose 2.5-5 µM
RAW264.7 [14] = experiment: Antiinflammatory activity in mouse RAW264.7 cells assessed as inhibition of LPS-induced NFkB p65 activation at 5 to 10 uM for 1 hrs followed by LPS stimulation for 23 hrs by Western blot analysis; type: functional, cell-based; settings: dose 5-10 µM, time 24.0 hrs
RAW264.7 [15] = experiment: Antiinflammatory activity in mouse RAW264.7 cells assessed as downregulation of LPS-induced JNK phosphorylation at 5 to 10 uM for 1 hrs followed by LPS stimulation for 23 hrs by Western blot analysis; type: functional, cell-based; settings: dose 5-10 µM, time 24.0 hrs
RAW264.7 [16] = experiment: Antiinflammatory activity in mouse RAW 264.7 cells assessed as inhibition of LPS-induced IL-6 production at 20 uM for 1 hrs followed by LPS stimulation for 23 hrs by ELISA; type: functional, cell-based; settings: time 24.0 hrs
RAW264.7 [17] = experiment: Antiinflammatory activity in mouse RAW 264.7 cells assessed as inhibition of LPS-induced TNF-alpha production at 5 to 10 uM for 1 hrs followed by LPS stimulation for 23 hrs by ELISA; type: functional, cell-based; settings: dose 5-10 µM, time 24.0 hrs
RAW264.7 [18] = experiment: Antiinflammatory activity in mouse RAW264.7 cells assessed as downregulation of LPS-induced ERK phosphorylation at 5 to 10 uM for 1 hrs followed by LPS stimulation for 23 hrs by Western blot analysis; type: functional, cell-based; settings: dose 5-10 µM, time 24.0 hrs
RAW264.7 [19] = experiment: Antiinflammatory activity in mouse RAW 264.7 cells assessed as inhibition of LPS-induced TNF-alpha production at 20 uM for 1 hrs followed by LPS stimulation for 23 hrs by ELISA; type: functional, cell-based; settings: time 24.0 hrs
RAW264.7 [20] = experiment: Antiinflammatory activity against mouse RAW264.7 cells assessed as inhibition of LPS-induced COX2 expression at 10 uM for 1 hrs followed by LPS stimulation for 23 hrs by western blot analysis; type: functional, cell-based; settings: time 24.0 hrs

SMILES | IC50 at 24 h [1] [µM] | other results
C=C[C@@](C)(/C=C/c1ccc(OCc2cn(-c3ccccc3)nn2)cc1)CCC=C(C)C | 172 | 
C=C[C@@](C)(/C=C/c1ccc(OCC(=O)N2CCCCC2)cc1)CCC=C(C)C | 58.6 | 
C=C[C@@](C)(/C=C/c1ccc(OC(=O)/C=C/c2ccccc2)cc1)CCC=C(C)C | 157 | 
C=C[C@@](C)(/C=C/c1ccc(OC(=O)c2cn(-c3ccc(OC)cc3)nn2)cc1)CCC=C(C)C | 64.7 | 
C=C[C@@](C)(/C=C/c1ccc(OCC(=O)Nc2ccc(F)cc2)cc1)CCC=C(C)C | 59.1 | 
C=C[C@@](C)(/C=C/c1ccc(OCc2cn(-c3ccc(Cl)cc3)nn2)cc1)CCC=C(C)C | 47.6 | 
C=C[C@@](C)(/C=C/c1ccc(OC(=O)c2cn(-c3ccc(C)cc3)nn2)cc1)CCC=C(C)C | 37.2 | 
C=C[C@@](C)(/C=C/c1ccc(OCC(=O)NC(c2ccc(C)cc2)P(=O)(OCC)OCC)cc1)CCC=C(C)C (stereo not given in full) | 209 | 
C=C[C@@](C)(/C=C/c1ccc(OCc2cn(-c3ccc(C(F)(F)F)cc3)nn2)cc1)CCC=C(C)C | 82.1 | 
C=C[C@@](C)(/C=C/c1ccc(OCC(=O)Nc2ccccc2)cc1)CCC=C(C)C | 63.3 | 
C=C[C@@](C)(/C=C/c1ccc(OCc2cn(Cc3ccc(C)cc3)nn2)cc1)CCC=C(C)C | 371 | 
C=C[C@@](C)(/C=C/c1ccc(O)cc1)CCC=C(C)C [BAKUCHIOL] | 97.2 | 
C=C[C@@](C)(/C=C/c1ccc(OCc2cn(-c3ccc(C)cc3)nn2)cc1)CCC=C(C)C | 86.9 | 
C=C[C@@](C)(/C=C/c1ccc(OCC(=O)Nc2ccc(Cl)cc2)cc1)CCC=C(C)C | 50.7 | 
C=C[C@@](C)(/C=C/c1ccc(OCc2cn(Cc3ccc(Cl)cc3)nn2)cc1)CCC=C(C)C | 327 | 
C=C[C@@](C)(/C=C/c1ccc(OCC(=O)N2CCCC2)cc1)CCC=C(C)C | 40.5 | inhibition (RAW264.7 [2]): Active; inhibition (RAW264.7 [3]): Dose-Dependent Effect; inhibition (RAW264.7 [4]): Dose-Dependent Effect; Activity (RAW264.7 [5]): Dose-Dependent Effect; inhibition (RAW264.7 [6]): Active; inhibition (Danio rerio [7]): Dose-Dependent Effect; inhibition (RAW264.7 [8]): Dose-Dependent Effect; Activity (RAW264.7 [9]): Active; inhibition (RAW264.7 [10]): Active; inhibition (RAW264.7 [11]): Dose-Dependent Effect; Activity (RAW264.7 [12]): Dose-Dependent Effect; inhibition (Danio rerio [13]): Dose-Dependent Effect; inhibition (RAW264.7 [14]): Active; Activity (RAW264.7 [15]): Active; inhibition (RAW264.7 [16]): Active; inhibition (RAW264.7 [17]): Dose-Dependent Effect; Activity (RAW264.7 [18]): Active; inhibition (RAW264.7 [19]): Active; inhibition (RAW264.7 [20]): Active

SMILES | IC50 at 24 h [1] [µM] | other results
C=C[C@@](C)(/C=C/c1ccc(OCc2cn(-c3ccc(F)cc3)nn2)cc1)CCC=C(C)C | 233 | 
C=C[C@@](C)(/C=C/c1ccc(OC(=O)c2cn(-c3ccccc3)nn2)cc1)CCC=C(C)C | 69.9 | 
C=C[C@@](C)(/C=C/c1ccc(OCc2cn(Cc3ccc(F)cc3)nn2)cc1)CCC=C(C)C | 157 | 
C=C[C@@](C)(/C=C/c1ccc(OCC(=O)Nc2cccc3cccnc23)cc1)CCC=C(C)C | 649 | 
C=C[C@@](C)(/C=C/c1ccc(OC(=O)c2cc3ccccc3[nH]2)cc1)CCC=C(C)C | 108 | 
C=C[C@@](C)(/C=C/c1ccc(OCC(=O)NC(c2ccc(F)cc2)P(=O)(OCC)OCC)cc1)CCC=C(C)C (stereo not given in full) | 110 | 
C=C[C@@](C)(/C=C/c1ccc(OCC(=O)NC(c2ccccc2)P(=O)(OCC)OCC)cc1)CCC=C(C)C (stereo not given in full) | 33.4 | 
C=C[C@@](C)(/C=C/c1ccc(OC(=O)c2cc3cc(OC)ccc3[nH]2)cc1)CCC=C(C)C | 329 | 
C=C[C@@](C)(/C=C/c1ccc(OCc2cn(Cc3ccc(OC)cc3)nn2)cc1)CCC=C(C)C | 273 | 
C=C[C@@](C)(/C=C/c1ccc(OC(=O)c2cc3cc(Cl)ccc3[nH]2)cc1)CCC=C(C)C | 110 | 
C=C[C@@](C)(/C=C/c1ccc(OC(=O)c2cn(-c3ccc(Cl)cc3)nn2)cc1)CCC=C(C)C | 115 | 
C=C[C@@](C)(/C=C/c1ccc(OCc2cn(-c3ccc(OC)cc3)nn2)cc1)CCC=C(C)C | 47.4 | 
C=C[C@@](C)(/C=C/c1ccc(OCc2cn(Cc3ccccc3)nn2)cc1)CCC=C(C)C | 480 | 
C=C[C@@](C)(/C=C/c1ccc(OC(=O)c2cn(-c3ccc(F)cc3)nn2)cc1)CCC=C(C)C | 79.9 | 
C=C[C@@](C)(/C=C/c1ccc(OC(=O)c2ccc3ncccc3c2)cc1)CCC=C(C)C | 88 | 
